Results: ChEMBL document CHEMBL4387741, “Optimization of novel reversible Bruton's tyrosine kinase inhibitors identified using Tethering-fragment-based screens” (Bioorg Med Chem, 2019)

Experiments:
[1] = test system: Tyrosine-protein kinase ABL1 (Homo sapiens), P00519 [F317I]; experiment: Inhibition of human phosphorylated ABL1 F317I mutant (S229 to K512 residues) expressed in mammalian expression system at 1 uM by Kinomescan method relative to control
[2] = target: Atypical kinase COQ8B, mitochondrial (Homo sapiens) (UniProt Q96D53); experiment: Inhibition of wild-type human full length ADCK4 (M1 to S544 residues) expressed in bacterial expression system at 1 uM by Kinomescan method relative to control
[3] = target: Calcium/calmodulin-dependent protein kinase type 1 (Homo sapiens) (UniProt Q14012); experiment: Inhibition of wild-type human full length CAMK1 (M1 to L370 residues) expressed in bacterial expression system at 1 uM by Kinomescan method relative to control
[4] = target: Tyrosine-protein kinase CSK (Homo sapiens) (UniProt P41240); experiment: Inhibition of wild-type human full length CSK (M1 to L450 residues) expressed in bacterial expression system at 1 uM by Kinomescan method relative to control
[5] = target: Death-associated protein kinase 1 (Homo sapiens) (UniProt P53355); experiment: Inhibition of wild-type human partial length DAPK1 (M1 to F296 residues) expressed in bacterial expression system at 1 uM by Kinomescan method relative to control
[6] = target: Discoidin domain-containing receptor 2 (Homo sapiens) (UniProt Q16832); experiment: Inhibition of wild-type human partial length DDR2 (V555 to E855 residues) expressed in mammalian expression system at 1 uM by Kinomescan method relative to control
[7] = target: Myotonin-protein kinase (Homo sapiens) (UniProt Q09013); experiment: Inhibition of wild-type human partial length DMPK (V47 to V415 residues) expressed in bacterial expression system at 1 uM by Kinomescan method relative to control
[8] = target: Ephrin type-A receptor 6 (Homo sapiens) (UniProt Q9UF33); experiment: Inhibition of wild-type human partial length EPHA6 (Y700 to E1046 residues) expressed in bacterial expression system at 1 uM by Kinomescan method relative to control
[9] = target: Serine/threonine-protein kinase haspin (Homo sapiens) (UniProt Q8TF76); experiment: Inhibition of wild-type human partial length HASPIN (I452 to K798 residues) expressed in mammalian expression system at 1 uM by Kinomescan method relative to control
[10] = target: Microtubule-associated serine/threonine-protein kinase 1 (Homo sapiens) (UniProt Q9Y2H9); experiment: Inhibition of wild-type human partial length MAST1 (S346 to V730 residues) expressed in mammalian expression system at 1 uM by Kinomescan method relative to control
[11] = target: Dual specificity mitogen-activated protein kinase kinase 3 (Homo sapiens) (UniProt P46734); experiment: Inhibition of wild-type human full length MEK3 (M1 to S318 residues) expressed in mammalian expression system at 1 uM by Kinomescan method relative to control
[12] = target: Serine/threonine-protein kinase Nek7 (Homo sapiens) (UniProt Q8TDX7); experiment: Inhibition of wild-type human full length NEK7 (M1 to S302 residues) expressed in bacterial expression system at 1 uM by Kinomescan method relative to control
[13] = target: Ribosomal protein S6 kinase alpha-4 (Homo sapiens) (UniProt O75676); experiment: Inhibition of wild-type human partial length N-terminal RPS6KA4 kinase domain 1 expressed in bacterial expression system at 1 uM by Kinomescan method relative to control
[14] = target: Mitogen-activated protein kinase kinase kinase 20 (Homo sapiens) (UniProt Q9NYL2); experiment: Inhibition of wild-type human partial length ZAK (M1 to L331 residues) expressed in bacterial expression system at 1 uM by Kinomescan method relative to control
[15] = target: Ephrin type-A receptor 2 (Homo sapiens) (UniProt P29317); experiment: Inhibition of wild-type human partial length EPHA2 (T593 to V891 residues) expressed in bacterial expression system at 10 uM by Kinomescan method relative to control
[16] = target: Interleukin-1 receptor-associated kinase 1 (Homo sapiens) (UniProt P51617); experiment: Inhibition of wild-type human partial length IRAK1 (R194 to S712 residues) expressed in mammalian expression system at 10 uM by Kinomescan method relative to control
[17] = test system: Mast/stem cell growth factor receptor Kit (Homo sapiens), P10721 [V559D]; experiment: Inhibition of human partial length KIT V559D mutant (Y545 to D952 residues) expressed in bacterial expression system at 10 uM by Kinomescan method relative to control
[18] = target: Leucine-rich repeat serine/threonine-protein kinase 2 (Homo sapiens) (UniProt Q5S007); experiment: Inhibition of wild-type human partial length LRRK2 (H970 to E2527 residues) expressed in mammalian expression system at 10 uM by Kinomescan method relative to control
[19] = target: Tyrosine-protein kinase Lyn (Homo sapiens) (UniProt P07948); experiment: Inhibition of wild-type human partial length LYN (C219 to Q511 residues) expressed in bacterial expression system at 10 uM by Kinomescan method relative to control
[20] = target: Mitogen-activated protein kinase kinase kinase 13 (Homo sapiens) (UniProt O43283); experiment: Inhibition of wild-type human full length LZK (M1 to W966 residues) expressed in mammalian expression system at 10 uM by Kinomescan method relative to control
[21] = target: Phosphorylase b kinase gamma catalytic chain, liver/testis isoform (Homo sapiens) (UniProt P15735); experiment: Inhibition of wild-type human partial length PHKG2 (M1 to W300 residues) expressed in bacterial expression system at 10 uM by Kinomescan method relative to control
[22] = target: Serine/threonine-protein kinase pim-1 (Homo sapiens) (UniProt P11309); experiment: Inhibition of wild-type human partial length PIM1 (A15 to K313 residues) expressed in bacterial expression system at 10 uM by Kinomescan method relative to control
[23] = target: Phosphatidylinositol 4-phosphate 5-kinase type-1 alpha (Homo sapiens) (UniProt Q99755); experiment: Inhibition of wild-type human full length PIP5K1A (M1 to H562 residues) expressed in bacterial expression system at 10 uM by Kinomescan method relative to control
[24] = target: Ribosomal protein S6 kinase alpha-3 (Homo sapiens) (UniProt P51812); experiment: Inhibition of wild-type human partial length N-terminal RSK2 kinase domain 1 (M1 to D394 residues) expressed in mammalian expression system at 10 uM by Kinomescan method relative to control
[25] = target: Serine/threonine-protein kinase Sgk2 (Homo sapiens) (UniProt Q9HBY8); experiment: Inhibition of wild-type human partial length SGK2 (L54 to C427 residues) expressed in mammalian expression system at 10 uM by Kinomescan method relative to control
[26] = target: Serine/threonine-protein kinase SIK2 (Homo sapiens) (UniProt Q9H0K1); experiment: Inhibition of wild-type human full length SIK2 (M1 to N926 residues) expressed in bacterial expression system at 10 uM by Kinomescan method relative to control
[27] = target: Serine/threonine-protein kinase WNK3 (Homo sapiens) (UniProt Q9BYP7); experiment: Inhibition of wild-type human partial length WNK3 (M1 to D434 residues) expressed in mammalian expression system at 10 uM by Kinomescan method relative to control

For `O=C(Nc1cccc([C@@H]2CN(c3ncnc4[nH]ccc34)CCN2CCO)c1)Nc1c(F)cccc1N1CCCC1`, the inhibition [1] was 100%, the inhibition [2] was 92% and the inhibition [3] was 95%. For the same molecule, the inhibition [4] was 65%, the inhibition [5] was 5.3% and the inhibition [6] was 73%. It also gave an inhibition [7] of 100%, an inhibition [8] of 99% and an inhibition [9] of 78%. For the same molecule, the inhibition [10] was 93%, the inhibition [11] was 77% and the inhibition [12] was 92%. It also gave an inhibition [13] of 94% and an inhibition [14] of 100%.
In the case of `O=C(Nc1cccc([C@H]2CCCN(c3ncnc4[nH]ccc34)C2)c1)Nc1ccccc1N1CCCC1`, the inhibition [15] is reported as 50%, the inhibition [16] is reported as 80% and the inhibition [17] is reported as 0.15%. The inhibition [18] was 96%, the inhibition [19] was 66% and the inhibition [20] was 100%. For the same molecule, the inhibition [21] was 83%, the inhibition [22] was 84% and the inhibition [23] was 5.1%. For the same molecule, the inhibition [24] was 57%, the inhibition [25] was 34% and the inhibition [26] was 84%. The inhibition [27] was 61%.
